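Briefly, cells in 96-well plates were exposed to five compound concentrations for 48 h, and endpoints were estimated by linear interpolation. At the TGI there is no net growth.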

Among the test systems are UACC-62 melanoma; UO-31 renal; SF-539 CNS; DLD-1 colon; EKVX NSCLC; HCT-116 colon; MALME-3M melanoma; SNB-75 CNS; CAKI-1 renal; SK-MEL-2 melanoma; NCI-H522 lung; SNB-19 CNS; U251 CNS; RXF 393 renal; HL-60(TB) leukemia; NCI-H23 lung.
Common to all, as to assay: growth of human tumour cells (NCI), 48 h

As for `N#C/C(=C\c1ccc(O)c(O)c1)C(=O)NC1CCC(CC2CCC(NC(=O)/C(C#N)=C/c3ccc(O)c(O)c3)CC2)CC1` (stereo unspecified), the TGI is 3.07 µM in the assay with UACC-62 melanoma; 4.97 µM in the assay on UO-31 renal; 2.67 µM with SF-539 CNS; > 40.4 µM with DLD-1 colon; 45.1 µM in the assay with EKVX NSCLC; 0.642 µM with HCT-116 colon. Besides, the TGI with MALME-3M melanoma is 15 µM; in the assay with SNB-75 CNS it was 1.69 µM; in the assay on CAKI-1 renal, > 29.3 µM; in the assay on SK-MEL-2 melanoma, 3.89 µM; with NCI-H522 lung, 4.71 µM; with SNB-19 CNS, > 29.9 µM. Moreover, the TGI stood at 4.5 µM in the assay with U251 CNS, 12.8 µM with RXF 393 renal, 6.09 µM in the assay with HL-60(TB) leukemia and 3.89 µM in the assay with NCI-H23 lung.

Source of the values: PubChem BioAssay (NCI).
